Test results published in the C3SDB collision cross section collection.

What was measured:
[1] = instrument: TW, calibrated with phosphatidylcholines (ESI+) and phosphatidylethanolamines (ESI-)
[2] = instrument: DT, single field, calibrated with Agilent tune mix (Agilent)
[3] = instrument: DT, stepped-field

## CCCCCCCCCCCCC=CC[C@@H](O)[C@H](CO)NC(=O)CCCCCCCCCCCCCCCCCCCCC [Cer(d18:0/22:1)]
[1]; [M+H]+
  collision cross section (N2): 271.9 Å²

## CCCCCCCCCCCCC=CC[C@@H](O)[C@H](CO)NC(=O)CC=CCCCCCCCCCCCCCC [Cer(d18:1/18:1)]
[1]; [M+H]+
  collision cross section (N2): 257.6 Å²
[1]; [M-H]-
  collision cross section (N2): 248.5 Å²

## CCCCCCCCCCCCC=CC[C@@H](O)[C@H](CO)NC(=O)CCCCCCCCCCCCCCCCCCC [Cer(d18:1/20:0)]
[1]; [M+H]+
  collision cross section (N2): 266.5 Å²
[1]; [M-H]-
  collision cross section (N2): 255.8 Å²

## CCCCCCCCCCCCC=CC[C@@H](O)[C@H](CO)NC(=O)CCCCCCCCCCCCCCCCCCCCC [Cer(d18:1/22:0)]
[1]; [M+H]+
  collision cross section (N2): 271.8 Å²
[1]; [M-H]-
  collision cross section (N2): 262 Å²

## CCCCCCCCCCCCC=CC[C@@H](O)[C@H](CO)NC(=O)CCCCCCCCCCCCCCCCCCCCCCC [Cer(d18:1/24:0)]
[1]; [M+H]+
  collision cross section (N2): 279.1 Å²
[1]; [M-H]-
  collision cross section (N2): 268 Å²

## CCCCCCCCCCCCC=CC[C@@H](O)[C@H](CO)NC(=O)CC=CCCCCCCCCCCCCCCCCCCCC [Cer(d18:1/24:1)]
[1]; [M+H]+
  collision cross section (N2): 276.8 Å²
[1]; [M-H]-
  collision cross section (N2): 266.4 Å²

## CCCCCCCCCCCCCCCC(=O)O[C@@H](CO)COC(=O)CCCCCCCCCCC [DG(14:0/14:0)]
[1]; [M+H-H2O]+
  collision cross section (N2): 242.3 Å²

## CCCCCCCCCCCCCCCCCCCCCC(=O)O[C@@H](CO)COC(=O)CCCCCCCCCCCCC [DG(18:0/18:0)]
[1]; [M+H-H2O]+
  collision cross section (N2): 270.5 Å²

## CCCCC/C=C\C/C=C\C/C=C\CCCCC(=O)OC[C@H](CO)OC(=O)CCCCCCC/C=C\CCCCCCCC [DG(18:2/18:2)]
[1]; [M+H-H2O]+
  collision cross section (N2): 255.9 Å²

## CC/C=C\C/C=C\C/C=C\C/C=C\C/C=C\CCCCCC(=O)O[C@@H](CO)COC(=O)CCCC/C=C\C/C=C\C/C=C\CCCCC [DG(20:4/20:4)]
[1]; [M+H-H2O]+
  collision cross section (N2): 262.6 Å²

## CCCCCCCCCCCCC=CC[C@@H](O)[C@H](CO[C@@H]1O[C@H](CO)[C@@H](O)C(O)C1O)NC(=O)CCCCCCCCCCCCCCCCC (stereo partly specified) [GlcCer(36:1)]
[2]; [M+HCOO]-
  collision cross section (N2): 283.3 Å²
[2]; [M+H]+
  collision cross section (N2): 284.1 Å²
[2]; [M+Na]+
  collision cross section (N2): 283.5 Å²
[3]; [M+Na]+
  collision cross section (N2): 286.7 Å²

## CCCCCCCCCCCCC=CC[C@@H](O)[C@H](CO[C@@H]1O[C@H](CO)[C@@H](O)C(O)C1O)NC(=O)CCCCCCCCCCCCCCCCCCCCC (stereo partly specified) [GlcCer(40:1)]
[2]; [M+HCOO]-
  collision cross section (N2): 294.5 Å²
[2]; [M+H]+
  collision cross section (N2): 295.1 Å²
[2]; [M+Na]+
  collision cross section (N2): 296.5 Å²
[3]; [M+Na]+
  collision cross section (N2): 301.1 Å²

## CCCCCCCCCCCCC=CC[C@@H](O)[C@H](CO[C@@H]1O[C@H](CO)[C@@H](O)C(O)C1O)NC(=O)CCCCCCCCCCCCCCCCCCCCCC (stereo partly specified) [GlcCer(41:1)]
[2]; [M+H]+
  collision cross section (N2): 298.5 Å²
[3]; [M+Na]+
  collision cross section (N2): 302.5 Å²

## CCCCCCCCCCCCC=CC[C@@H](O)[C@H](CO[C@@H]1O[C@H](CO)[C@@H](O)C(O)C1O)NC(=O)CCCCCCCCCCCCCCCCCCCCCCC (stereo partly specified) [GlcCer(42:1)]
[2]; [M+HCOO]-
  collision cross section (N2): 299.4 Å²
[2]; [M+H]+
  collision cross section (N2): 301.5 Å²
[2]; [M+Na]+
  collision cross section (N2): 302.8 Å²
[3]; [M+Na]+
  collision cross section (N2): 307.5 Å²

## CCCCCCCCCCCCC=CC[C@@H](O)[C@H](CO[C@@H]1O[C@H](CO)[C@@H](O)C(O)C1O)NC(=O)CCCCCCCCCCCCCCCCC (stereo partly specified) [GlcCer(d18:1/18:0)]
[1]; [M+H]+
  collision cross section (N2): 282.6 Å²
[1]; [M+Na]+
  collision cross section (N2): 282.2 Å²

## CCCCCCCCCCCCC=CC[C@@H](O)[C@H](CO[C@@H]1O[C@H](CO)[C@@H](O)C(O)C1O)NC(=O)CCCCCCCCCCCCCCCCCCC (stereo partly specified) [GlcCer(d18:1/20:0)]
[1]; [M+H]+
  collision cross section (N2): 287.8 Å²

## CCCCCCCCCCCCC=CC[C@@H](O)[C@H](CO[C@@H]1O[C@H](CO)[C@@H](O)C(O)C1O)NC(=O)CCCCCCCCCCCCCCCCCCCCC (stereo partly specified) [GlcCer(d18:1/22:0)]
[1]; [M+H]+
  collision cross section (N2): 293.2 Å²
[1]; [M+Na]+
  collision cross section (N2): 294.3 Å²

## CCCCCCCCCCCCC=CC[C@@H](O)[C@H](CO[C@@H]1O[C@H](CO)[C@@H](O)C(O)C1O)NC(=O)CC=CCCCCCCCCCCCCCCCCCC (stereo partly specified) [GlcCer(d18:1/22:1)]
[1]; [M+H]+
  collision cross section (N2): 293.1 Å²
[1]; [M+Na]+
  collision cross section (N2): 290.1 Å²

## CCCCCCCCCCCCC=CC[C@@H](O)[C@H](CO[C@@H]1O[C@H](CO)[C@@H](O)C(O)C1O)NC(=O)CCCCCCCCCCCCCCCCCCCCCCC (stereo partly specified) [GlcCer(d18:1/24:0)]
[1]; [M+H]+
  collision cross section (N2): 299.7 Å²
[1]; [M+Na]+
  collision cross section (N2): 299.1 Å²

## CCCCCCCCCCCCC=CC[C@@H](O)[C@H](CO[C@@H]1O[C@H](CO)[C@@H](O)C(O)C1O)NC(=O)CC=CCCCCCCCCCCCCCCCCCCCCCC (stereo partly specified) [GlcCer(d18:1/26:1)]
[1]; [M+H]+
  collision cross section (N2): 304.5 Å²
[1]; [M+Na]+
  collision cross section (N2): 304.7 Å²

## CCCCCCCCCCCCCC(=O)OC[C@@H](O)COP(=O)([O-])OCC[N+](C)(C)C [LPC(14:0)]
[1]; [M+H]+
  collision cross section (N2): 220.8 Å²
[2]; [M+HCOO]-
  collision cross section (N2): 227 Å²

## CCCCCCCCCCCCCCCC(=O)O[C@H](CO)COP(=O)(O)OCCN [LPE(16:0)]
[1]; [M+H]+
  collision cross section (N2): 213.4 Å²
[1]; [M+Na]+
  collision cross section (N2): 218.8 Å²
[1]; [M-H]-
  collision cross section (N2): 206 Å²
[2]; [M+H]+
  collision cross section (N2): 213.7 Å²
[2]; [M+Na]+
  collision cross section (N2): 219.9 Å²
[2]; [M-H]-
  collision cross section (N2): 207.1 Å²

## CCCCCCCCCCCCCCCC/C=C\OC[C@@H](O)COP(=O)([O-])OCC[NH3+] [LPE(p18:0)]
[1]; [M+H]+
  collision cross section (N2): 222.5 Å²
[1]; [M+Na]+
  collision cross section (N2): 222 Å²
[1]; [M-H]-
  collision cross section (N2): 211.4 Å²

## CCCCCCC/C=C\CCCCCCCC(=O)OC[C@H](COP(=O)([O-])OCC[N+](C)(C)C)OC(=O)CCCCCCC/C=C\CCCCCCCC [PC(35:2)]
[2]; [M+H]+
  collision cross section (N2): 286.4 Å²
[3]; [M+K]+
  collision cross section (N2): 297.7 Å²

## CCCCCCCCCCCCCCCCCCC(=O)O[C@H](COC(=O)CCCCCCCCCCCCCCCC)COP(=O)([O-])OCC[N+](C)(C)C [PC(36:0)]
[1]; [M+H]+
  collision cross section (N2): 292.5 Å²

## CC/C=C\C/C=C\C/C=C\C/C=C\C/C=C\C/C=C\CCC(=O)OC[C@H](COP(=O)(O)OCCN)OC(=O)CCC/C=C\C/C=C\C/C=C\C/C=C\C/C=C\CC [PE(42:11)]
[1]; [M+H]+
  collision cross section (N2): 280.2 Å²

## CCCCC/C=C\C/C=C\C/C=C\C/C=C\CCCC(=O)O[C@H](CO/C=C\CCCCCCCCCCCCCCCCCC)COP(=O)(O)OCCN [PE(p40:4)]
[1]; [M+H]+
  collision cross section (N2): 286.9 Å²
[1]; [M+Na]+
  collision cross section (N2): 290.1 Å²
[1]; [M-H]-
  collision cross section (N2): 276.1 Å²

## CC/C=C\C/C=C\C/C=C\C/C=C\C/C=C\CCCC(=O)OC[C@H](COP(=O)(O)OC[C@@H](O)CO)OC(=O)CCCCCCCCC/C=C\C/C=C\CCCCC [PG(40:7)]
[1]; [M+Na]+
  collision cross section (N2): 288.3 Å²

## CCCCC/C=C\C/C=C\C/C=C\CCCCCCC(=O)O[C@H](COC(=O)CCCC/C=C\C/C=C\C/C=C\CCCCC)COP(=O)(O)O[C@H]1C(O)C(O)C(O)[C@@H](O)C1O (stereo partly specified) [PI(38:6)]
[1]; [M+Na]+
  collision cross section (N2): 292.4 Å²

## CCCCCCCC/C=C\CCCCCCCC(=O)OC[C@H](COP(=O)(O)O[C@H]1C(O)C(O)C(O)[C@@H](OP(=O)(O)O)C1O)OC(=O)CCCCCCC/C=C\CCCCCCCC (stereo partly specified) [PIP(36:2)]
[1]; [M+H-H2O]+
  collision cross section (N2): 295.5 Å²

## CCCCC/C=C\C/C=C\C/C=C\CCCCCCC(=O)OC[C@H](COP(=O)(O)OC[C@H](N)C(=O)O)OC(=O)CCCCCCC/C=C\C/C=C\CCCCC [PS(38:5)]
[1]; [M-H]-
  collision cross section (N2): 279 Å²

## CCCCCCCCCCCCC=CC[C@@H](O)[C@H](COP(=O)([O-])OCC[N+](C)(C)C)NC(=O)CCCCCCCCCCCCCCCCCC [SM(37:1)]
[2]; [M+H]+
  collision cross section (N2): 290.8 Å²
[3]; [M+Na]+
  collision cross section (N2): 294.8 Å²

## CCCCCCCCCCCCC=CC[C@@H](O)[C@H](COP(=O)([O-])OCC[N+](C)(C)C)NC(=O)CCCCCCCCCCCCCCCCCCCC [SM(39:1)]
[2]; [M+H]+
  collision cross section (N2): 297.4 Å²
[3]; [M+Na]+
  collision cross section (N2): 301.6 Å²

## CCCCCCCCCCCCC=CC[C@@H](O)[C@H](COP(=O)([O-])OCC[N+](C)(C)C)NC(=O)CC=CCC=CCCCCCCCCCCCCCCC [SM(40:3)]
[2]; [M+H]+
  collision cross section (N2): 294.6 Å²
[3]; [M+Na]+
  collision cross section (N2): 299.9 Å²

## CCCCCCCCCCCCC=CC[C@@H](O)[C@H](COP(=O)([O-])OCC[N+](C)(C)C)NC(=O)CCCCCCCCCCCCCCCCCCC [SM(d18:1/20:0)]
[1]; [M+H]+
  collision cross section (N2): 292.2 Å²

## CCCCCCCCCCCCC=CC[C@@H](O)[C@H](COP(=O)([O-])OCC[N+](C)(C)C)NC(=O)CCCCCCCCCCCCCCCCCCCCCCC [SM(d18:1/24:0)]
[1]; [M+H]+
  collision cross section (N2): 302.2 Å²

## CCCCCCCCCCCCC=CC[C@@H](O)[C@H](COP(=O)([O-])OCC[N+](C)(C)C)NC(=O)CC=CCCCCCCCCCCCCCCCCCCCC [SM(d18:1/24:1)]
[1]; [M+H]+
  collision cross section (N2): 300.7 Å²
